Measurements published in patent US20230074545A1, “TREATMENT OF CANCER WITH CDK12/13 INHIBITORS” (Kinnate Biopharma Inc., priority 2019, published 2023).

Experiments:
RNA polymerase II = assay: Inhibition of phosphorylation of RNA polymerase II in NCI-H82 cells; assay type: cell-based; conditions: Homo sapiens, 2 hours, phosphorylated/total RNA polymerase II
Description: CDK12 and CDK13 phosphorylate RNA polymerase II. The ability of compound 1 to inhibit phosphorylation of RNA polymerase II was analyzed in NCI-H82 cells. 200,000 cells were plated in each well of a 96 well MSD plate. Cells were treated with compound 1, THZ531 (a positive control), or E9 at concentrations between 4 μM to 126.4 pM (0.5 log serial dilutions) for 2 hours. THZ531 and E9 are further discussed in Gao et al, Cell Chemical Biology 2017. The amount of phosphorylated RNA polymerase II and the total amount of RNA polymerase II was analyzed using antibodies. The values were normalized by taking the ratio of the phosphorylated RNA polymerase II to the total RNA polymerase II. As depicted in FIG. 3A (THZ531), FIG. 3B (Compound 1), and Table 6, increasing the concentration of compound 1 results in a dose-specific increase in the inhibition of phosphorylation of RNA polymerase II.

BRCA1 = assay: DDR gene expression (qPCR) in HCC70 cells; assay type: cell-based
Description: HCC70 (ATCC CRL-2315) cells in 96-well plate format were treated with either DMSO or compound 1 for 2 hours. After compound treatment was done for 2 hours, the plates were washed by PBS once, then fresh culture medium was added to the cells and cells were incubated for 4, 10, 22, 46, 70 hours respectively. At each time point (4, 10, 22, 46, 70 hours after 2 h washout) RNA extraction was done according to manufacturer's instructions as follows. RNA Extraction and qPCR was done using the Ambion Cell to CT kit (Cat #AM1728). Briefly, cells were removed from the incubator, washed once in PBS, lysed by adding 50 μL Lysis Solution from the kit, mixed 5 times and 5 μL Stop Solution was added to the well. All actions were done using RNAase and DNAase free labware.
The Reverse Transcription Reaction mix was then prepared. All reagents were kept in an ice-water bath during the whole operation. […]
The setting of QuantStudio®5 Real-Time qPCR System was shown in the following figure and the fluorescence gain was set at 1×.
Data Analysis was done according to the QuantStudio5 Software. Threshold of signal was calculated by QuantStudio 5 software using the default setting. The relative gene expression was evaluated using the following formulas: […]
Gene expression was detected using qPCR with the Taqman (Applied Biosystems, ThermoFisher Scientific; Carlsbad, Calif.) probe listed in Table 7. […]

HCC70 tumors = assay: HCC70 mouse xenograft model of triple-negative breast cancer; assay type: in vivo, CB-17 SCID female mice; conditions: compared to vehicle control
From the text: To test the efficacy of the compounds in vivo, studies were done in mouse xenografts. For all studies, general procedures for animal care and housing were done in accordance with the standard, Commission on Life Sciences, National Research Council, Standard operating procedures (SOPs) of Pharmaron, Inc (Beijing, China). The mice were kept in laminar flow rooms at constant temperature and humidity with 3-5 mice in each cage with bedding changed once weekly. Animals were housed in polycarbonate cage which is in the size of 300×180×150 mm^3 and in an environmentally monitored, well-ventilated room maintained at a temperature of (22±3° C.) and a relative humidity of 40%-70% on a 12 hour:12 hour light:dark cycle with full spectrum lighting. […]
Each mouse was inoculated subcutaneously on the right flank with HCC70 tumor cells (5×10^6) in 0.1 ml of RPMI-1640 Medium and Matrigel mixture (1:1 ratio) for tumor development. […] All study animals were monitored not only tumor growth but also behavior such as mobility, food and water consumption (by cage side checking only), body weight (BW), eye/hair matting and any other abnormal effect. Any mortality and/or abnormal clinical signs were recorded.
The measurement of tumor size was conducted twice weekly with a caliper and recorded. […]
Protocol-required measurements and observations were recorded manually onto excel spread sheets. […]

| Compound | IC50 (RNA polymerase II) [nM] | levels of BRCA1 expression (BRCA1; 2 hours treatment then washout, qPCR) | time of strongest reduction in gene expression (BRCA1) (BRCA1; after treatment (post-washout)) [h] | T/C (HCC70 tumors; 20 mg/kg intravenously biweekly for 14 days) [%] | T/C (HCC70 tumors; 25 mg/kg intravenously biweekly for 14 days) [%] |
| --- | --- | --- | --- | --- | --- |
| C=CC(=O)Nc1ccc(C(=O)N2CC[C@@H](Nc3ncc(Cl)c(OC)n3)C2)cc1 [Compound 1, (R)-N-(4-(3-((5-chloro-4-methoxypyrimidin-2-yl)amino)pyrrolidine-1-carbonyl)phenyl)acrylamide] | 12.5 | reduction in levels of BRCA1 expression | 10 |  |  |
| C=CC(=O)Nc1ccc(C(=O)N2CC[C@@H](Nc3ncc(C#N)cn3)C2)cc1 [Compound 4, (R)-N-(4-(3-((5-cyanopyrimidin-2-yl)amino)pyrrolidine-1-carbonyl)phenyl)acrylamide] |  |  |  | −37 | −39 |
